Measurements: ChEMBL document CHEMBL3085746, “Discovery of novel PTP1B inhibitors via pharmacophore-oriented scaffold hopping from Ertiprotafib” (Bioorg Med Chem Lett, 2013)
pIC50: −log10 of the molar value.

How the values were obtained:
[1] = biological target: T1, Tyrosine-protein phosphatase non-receptor type 1 (Homo sapiens) (UniProt P18031); assay: Inhibition of GST-tagged recombinant human PTP1B at 100 uM
T1 sequence (whole entry): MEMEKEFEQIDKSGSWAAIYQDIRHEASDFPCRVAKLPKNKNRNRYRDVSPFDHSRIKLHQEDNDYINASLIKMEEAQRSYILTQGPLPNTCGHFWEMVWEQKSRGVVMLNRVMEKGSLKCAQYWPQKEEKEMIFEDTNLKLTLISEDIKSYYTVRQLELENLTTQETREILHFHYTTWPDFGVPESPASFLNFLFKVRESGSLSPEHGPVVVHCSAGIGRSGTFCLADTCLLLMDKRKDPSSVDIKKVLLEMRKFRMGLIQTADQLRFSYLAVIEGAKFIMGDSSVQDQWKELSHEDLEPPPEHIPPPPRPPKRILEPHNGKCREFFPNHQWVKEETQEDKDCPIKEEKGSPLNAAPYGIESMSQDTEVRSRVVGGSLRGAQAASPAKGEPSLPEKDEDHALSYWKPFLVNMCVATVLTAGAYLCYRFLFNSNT

[2] = biological target: T2, Tyrosine-protein phosphatase non-receptor type 1 (Homo sapiens, UniProt P18031); assay: Inhibition of GST-tagged recombinant human PTP1B
T2 sequence (P18031 whole entry): T1 sequence (whole entry)

Row | Compound | inhibition [1] [%] | pIC50 [2]
1 | O=C(N[C@H](Cc1ccccc1)C(=O)O)c1ccc(CN(c2ccccc2)c2ccccc2)cc1 | 83.8 | –
2 | O=C(N[C@H](Cc1ccccc1)C(=O)O)c1ccc(CN(Cc2ccccc2)Cc2ccccc2)cc1 | 95 | 4.62
3 | O=C(O)CN(Cc1ccccc1)c1ccc(CN(Cc2ccc3c(c2)OCO3)c2ccc(F)cc2)cc1 | 44.3 | –
4 | COc1ccc(N(Cc2ccc(C(=O)N[C@H](Cc3ccccc3)C(=O)O)cc2)Cc2ccc3c(c2)OCO3)cc1 | 100 | –
5 | O=C(O)CN(C(=O)Cc1ccccc1)c1ccc(CN(Cc2ccc3c(c2)OCO3)c2ccc(F)cc2)cc1 | 96.4 | 5.89
6 | COc1ccc(N(Cc2ccc3c(c2)OCO3)C(=O)c2ccc(C(CC(=O)O)CC(=O)c3ccccc3)cc2)cc1 (stereo not given) | < 40 | –
7 | COc1ccc(N(Cc2ccc(O[C@H](Cc3ccccc3)C(=O)O)cc2)C(=O)c2ccc3c(c2)OCO3)cc1 | < 40 | –
8 | O=C(O)CC(CC(=O)c1ccccc1)c1ccc(CN(Cc2ccc3c(c2)OCO3)c2ccc(F)cc2)cc1 (stereo not given) | 59.1 | –
9 | COc1ccc(N(Cc2ccc3c(c2)OCO3)C(=O)c2ccc(CN(CC(=O)O)Cc3ccccc3)cc2)cc1 | < 40 | –
10 | O=C(N[C@H](Cc1ccccc1)C(=O)O)c1ccc(C(=O)N(Cc2ccccc2)Cc2ccccc2)cc1 | < 40 | –

More lines, now with the values ahead:

Row | inhibition [1] [%] | pIC50 [2] | Compound
11 | 98 | 5.00 | O=C(O)CC(CC(=O)c1ccccc1)c1ccc(Cn2c3ccccc3c3ccccc32)cc1 (stereo not given)
12 | 51.8 | – | O=C(N[C@H](Cc1ccccc1)C(=O)O)c1ccc(Cn2c3ccccc3c3ccccc32)cc1
13 | 100 | 6.06 | O=C(O)[C@@H](Cc1ccccc1)Oc1c(Br)cc(-c2c3ccccc3c(Br)c3oc4ccccc4c23)cc1Br
14 | < 40 | – | O=C(O)[C@@H](Cc1ccccc1)Oc1ccc(C(=O)N(Cc2ccc3c(c2)OCO3)c2ccc(F)cc2)cc1
15 | 98.4 | 4.39 | O=C(O)[C@@H](Cc1ccccc1)Oc1ccc(-n2c3ccccc3c3ccccc32)cc1
16 | < 40 | – | COc1ccc(N(Cc2ccc(O[C@H](Cc3ccccc3)C(=O)O)cc2)C(=O)c2ccc(C(=O)O)cc2)cc1
17 | 113 | 5.41 | O=C(N[C@H](Cc1ccccc1)C(=O)O)c1ccc(CN(Cc2ccccc2)c2ccccc2)cc1
18 | 112 | 4.98 | O=C(O)[C@@H](Cc1ccccc1)Oc1ccc(CN(Cc2ccc3c(c2)OCO3)c2ccc(F)cc2)cc1
19 | 61 | – | O=C(O)CC(CC(=O)c1ccccc1)c1ccc(OC(c2ccccc2)c2ccccc2)cc1 (stereo not given)
20 | 106 | 4.99 | O=C(O)CC(CC(=O)c1ccccc1)c1ccc(-n2c3ccccc3c3ccccc32)cc1 (stereo not given)
21 | 67.3 | – | O=C(O)CN(Cc1ccccc1)Cc1ccc(-n2c3ccccc3c3ccccc32)cc1
22 | 53.4 | – | O=C(N[C@H](Cc1ccccc1)C(=O)O)c1ccc(Cn2c(Cc3ccccc3)nc3ccccc32)cc1
